The target of assay [1] is T1, hEP4 (Homo sapiens (Human), UniProt P35408). As to the kind of experiment: Radioligand binding ([3H]PGE2), HEK-293 cell membranes expressing EP4 receptor. To be noted: top number in Table 2. The method, then:
(§1) HEK-293 cells stably expressing the human or feline FP receptor, or EP1, EP2, EP3, or EP4 receptors were washed with TME buffer, scraped from the bottom of the flasks, and homogenized for 30 sec using a Brinkman PT 10/35 polytron. TME buffer was added to achieve a final 40 ml volume in the centrifuge tubes (the composition of TME is 100 mM TRIS base, 20 mM MgCl2, […]; 10N HCl is added to achieve a pH of 7.4).
(§2) The cell homogenate was centrifuged at 19000 r.p.m. for 20 min at 4° C. using a Beckman Ti-60 rotor. The resultant pellet was resuspended in TME buffer to give a final 1 mg/ml protein concentration, as determined by Biorad assay. Radioligand binding competition assays vs. [^3H-]17-phenyl PGF2α, (5 nM) were performed in a 100 μl volume for 60 min. Binding reactions were started by adding plasma membrane fraction. The reaction was terminated by the addition of 4 ml ice-cold TRIS-HCl buffer and rapid filtration through glass fiber GF/B filters using a Brandel cell harvester. The filters were washed 3 times with ice-cold buffer and oven dried for one hour. Non-specific binding was determined with 10 uM unlabeled 17-phenyl PGF2α.
(§3) [^3H-] PGE2 (5 nM; specific activity 180 Ci mmol) was used as the radioligand for EP receptors. Binding studies employing EP1, EP2, EP3, EP4 were performed in duplicate in at least three separate experiments. A 200 μl assay volume was used. Incubations were for 60 min at 25° C. and were terminated by the addition of 4 ml of ice-cold 50 mM TRIS-HCl, followed by rapid filtration through Whatman GF/B filters and three additional 4 ml washes in a cell harvester (Brandel). Non-specific binding determined with 10^−5M of unlabeled PGE2.

Assay [2] addresses hEP1 (Homo sapiens (Human), UniProt P34995). The experiment in a line: Radioligand binding ([3H]PGE2), HEK-293 cell membranes expressing EP1 receptor. Particulars: top number in Table 2. The method, then:
as §1, §2, §3

For assay [3], the target named is T1, hEP4. As to the kind of experiment: FLIPR calcium signal, HEK-293(EBNA) cells expressing hEP4/Gqs5. Particulars: bottom number in Table 2, read-out: hEP4 functional EC50. It is filed as cell-based. The method, then:
HEK-293(EBNA) cells, stably expressing one type or subtype of recombinant human prostaglandin receptors (prostaglandin receptors expressed: hDP/Gqs5; hEP1; hEP2/Gqs5; hEP3A/Gqi5; hEP4/Gqs5; hFP; hIP; hTP), were cultured in 100 mm culture dishes in high-glucose DMEM medium containing 10% fetal bovine serum, 2 mM 1-glutamine, 250 μg/ml geneticin (G418) and 200 μg/ml hygromycin B as selection markers, and 100 units/ml penicillin G, 100 μg/m streptomycin and 0.25 μg/m amphotericin B.
Cells were seeded at a density of 5×10^4 cells per well in Biocoat® Poly-D-lysine-coated black-wall, clear-bottom 96-well plates (Becton-Dickinson) and allowed to attach overnight in an incubator at 37° C. Cells were then washed two times with HBSS-HEPES buffer (Hanks Balanced Salt Solution without bicarbonate and phenol red, 20 mM HEPES, pH 7.4) using a Denley Cellwash plate washer (Labsystems). After 45 minutes of dye-loading in the dark, using the calcium-sensitive dye Fluo-4 AM at a final concentration of 2 μM, plates were washed four times with HBSS-HEPES buffer to remove excess dye leaving 100 μl in each well. Plates were re-equilibrated to 37° C. for a few minutes.
Cells were excited with an Argon laser at 488 nm, and emission was measured through a 510-570 nm bandwidth emission filter (FLIPR™, Molecular Devices, Sunnyvale, Calif.). […] The peak increase in fluorescence intensity was recorded for each well. On each plate, four wells each served as negative (HBSS-HEPES buffer) and positive controls (standard agonists: BW245C (hDP); PGE2 (hEP1; hEP2/Gqs5; hEP3A/Gqi5; hEP4/Gqs5); PGF2 (hFP); carbacyclin (hIP); U-46619 (hTP), depending on receptor). The peak fluorescence change in each drug-containing well was then expressed relative to the controls.
Compounds were tested in a high-throughput (HTS) or concentration-response (CoRe) format. In the HTS format, forty-four compounds per plate were examined in duplicates at a concentration of 10^−5 M. To generate concentration-response curves, four compounds per plate were tested in duplicates in a concentration range between 10^−5 and 10^−11 M. The duplicate values were averaged.

The target in assay [4] is hEP3D (Homo sapiens (Human), UniProt P43115). As to the kind of experiment: Radioligand binding ([3H]PGE2), HEK-293 cell membranes expressing EP3 receptor. To be noted: top number in Table 2. As to the method:
as §1, §2, §3

Assay [5] addresses hTP (Homo sapiens (Human), UniProt P21731). The experiment in a line: Table 2 top number, hTP (radioligand binding per footnote). Particulars: top number in Table 2.

T1 sequence (P35408 whole entry, looked up): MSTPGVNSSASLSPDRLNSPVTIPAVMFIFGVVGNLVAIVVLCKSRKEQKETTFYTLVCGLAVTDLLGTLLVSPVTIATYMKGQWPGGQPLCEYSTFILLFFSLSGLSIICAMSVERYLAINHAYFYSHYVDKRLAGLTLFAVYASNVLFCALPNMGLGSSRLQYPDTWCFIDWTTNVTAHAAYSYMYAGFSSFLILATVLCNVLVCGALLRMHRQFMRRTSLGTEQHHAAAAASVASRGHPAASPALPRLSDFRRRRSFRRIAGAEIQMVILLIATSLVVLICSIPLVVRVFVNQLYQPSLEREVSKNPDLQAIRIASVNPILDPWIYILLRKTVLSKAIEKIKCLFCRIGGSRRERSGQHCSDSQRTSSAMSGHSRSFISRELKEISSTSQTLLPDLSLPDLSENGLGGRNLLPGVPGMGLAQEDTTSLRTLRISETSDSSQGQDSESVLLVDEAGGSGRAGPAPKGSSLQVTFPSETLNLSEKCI
Chain of hEP3D (P43115 other isoform, or with tags, fused parts or gaps): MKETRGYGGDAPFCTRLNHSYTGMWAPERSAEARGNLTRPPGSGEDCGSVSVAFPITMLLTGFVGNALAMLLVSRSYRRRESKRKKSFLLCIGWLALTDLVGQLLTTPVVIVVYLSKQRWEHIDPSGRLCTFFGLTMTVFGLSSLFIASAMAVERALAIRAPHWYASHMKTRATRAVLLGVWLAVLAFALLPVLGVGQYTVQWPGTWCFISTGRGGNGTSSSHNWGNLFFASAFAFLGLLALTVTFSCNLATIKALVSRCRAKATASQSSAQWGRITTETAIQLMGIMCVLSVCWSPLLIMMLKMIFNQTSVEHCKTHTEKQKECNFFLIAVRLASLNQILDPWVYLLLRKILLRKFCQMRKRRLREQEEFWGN
Chain of hTP (P21731 whole entry): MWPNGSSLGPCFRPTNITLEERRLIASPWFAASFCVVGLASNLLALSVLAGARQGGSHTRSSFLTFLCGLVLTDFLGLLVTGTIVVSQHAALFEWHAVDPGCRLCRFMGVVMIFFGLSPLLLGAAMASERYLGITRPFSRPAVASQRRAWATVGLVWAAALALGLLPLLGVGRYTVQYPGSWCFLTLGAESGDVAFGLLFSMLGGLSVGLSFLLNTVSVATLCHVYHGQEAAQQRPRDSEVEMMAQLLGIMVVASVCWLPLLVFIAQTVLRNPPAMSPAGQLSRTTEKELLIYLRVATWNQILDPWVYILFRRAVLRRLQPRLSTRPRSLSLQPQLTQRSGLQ
Chain of hEP1 (P34995 whole entry): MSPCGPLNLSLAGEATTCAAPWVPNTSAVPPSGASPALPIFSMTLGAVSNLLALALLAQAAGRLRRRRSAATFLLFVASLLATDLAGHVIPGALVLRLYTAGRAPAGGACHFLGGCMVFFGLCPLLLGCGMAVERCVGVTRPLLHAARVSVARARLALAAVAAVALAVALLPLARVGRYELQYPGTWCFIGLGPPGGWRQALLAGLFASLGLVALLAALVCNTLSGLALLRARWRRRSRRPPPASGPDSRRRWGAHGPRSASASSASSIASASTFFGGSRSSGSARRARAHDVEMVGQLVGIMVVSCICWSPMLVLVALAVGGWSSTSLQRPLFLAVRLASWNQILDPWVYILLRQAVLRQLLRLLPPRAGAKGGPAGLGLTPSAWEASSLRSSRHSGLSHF

`CCN(CC)C(=O)CCC/C=C\C[C@H]1C(=O)C(C)(C)[C@@H](O)[C@@H]1/C=C/C(O)Cc1cc2ccccc2s1` (single isomer, unassigned) [Compound 63] displayed a concentration for half-maximal inhibition (IC50) in assay [1] of 478 nM. The compound further gave a hEP1 radioligand binding IC50 in assay [2] greater than 10000 nM.

Turning to `CC1(C)C(=O)[C@H](C/C=C\CCCC(=O)O)[C@@H](/C=C/C(O)Cc2cc3ccccc3s2)[C@@H]1O` (single isomer, unassigned) [Compound 54], the IC50 in assay [1] came out at 20 nM; in assay [2], 308 nM; in assay [4], 4700 nM. Also, in assay [3], the EC50 worked out at 0.3 nM.

The compound `CC1(C)C(=O)[C@H](SCCCSCC(=O)O)[C@@H](/C=C/C(O)CCc2sc3ccccc3c2Cl)[C@@H]1O` (single isomer, unassigned) [Compound 23] returned a hTP radioligand binding IC50 in assay [5] greater than 10000 nM. Further, the half-inhibitory concentration (IC50) in assay [1] was 44 nM. Also, in assay [3], the 50% effective concentration (EC50) came to 0.1 nM. This compound came in with a hEP3D radioligand binding IC50 in assay [4] greater than 10000 nM.

For `CC1(C)C(=O)[C@H](C/C=C\CCCC(N)=O)[C@@H](/C=C/C(O)Cc2cc3ccccc3s2)[C@@H]1O` (single isomer, unassigned) [Compound 69], the hTP radioligand binding IC50 in assay [5] is greater than 10000 nM. Further, in assay [1], the IC50 came out at 5000 nM.

`CCN(CC)C(=O)CCC/C=C\C[C@H]1C(=O)C(C)(C)[C@@H](O)[C@@H]1/C=C/C(O)Cc1cc2ccccc2s1` (single isomer, unassigned) [Compound 62] came in with a half-maximal inhibitory concentration (IC50) in assay [1] of 832 nM.

In assay [5], `CC1(C)C(=O)[C@H](CC#CCCCC(=O)O)[C@@H](/C=C/C(O)Cc2cc3ccccc3s2)[C@@H]1O` (single isomer, unassigned) [Compound 75] returned a hTP radioligand binding IC50 greater than 10000 nM. For the same compound, the hEP4 radioligand binding IC50 in assay [1] was greater than 10000 nM. In assay [2], this compound yielded a half-maximal inhibitory concentration (IC50) of 2050 nM.

Compound `COC(=O)CSCCCS[C@H]1C(=O)C(C)(C)[C@@H](O)[C@@H]1/C=C/C(O)CCc1sc2ccccc2c1Cl` (single isomer, unassigned) [Compound 22] displayed a 50% inhibitory concentration (IC50) in assay [1] of 300 nM. For the same compound, the half-maximal effective concentration (EC50) in assay [3] came to 30 nM.

Regarding `CC1(C)C(=O)[C@H](C/C=C\CCCC(=O)O)[C@@H](/C=C/C(O)CCc2sc3ccccc3c2Cl)[C@@H]1O` (single isomer, unassigned) [Compound 40], in assay [5], the hTP radioligand binding IC50 is greater than 10000 nM. Also, the IC50 in assay [1] is 200 nM. Moreover, the EC50 in assay [3] was 0.3 nM.

On to `CC1(C)C(=O)[C@H](CC#CCCCC(=O)O)[C@@H](/C=C/C(O)Cc2cc3ccccc3s2)[C@@H]1O` (single isomer, unassigned) [Compound 74], for which the values for the IC50 in assay [1] and in assay [2] were 256 nM and 2380 nM, respectively.

On to `COC(=O)CCCC#CC[C@H]1C(=O)C(C)(C)[C@@H](O)[C@@H]1/C=C/C(O)Cc1cc2ccccc2s1` (single isomer, unassigned) [Compound 72], for which the hEP4 radioligand binding IC50 in assay [1] was greater than 10000 nM.

In the case of `CC1(C)C(=O)[C@H](C/C=C\CCCC(=O)O)[C@@H](/C=C/C(O)Cc2cc3ccccc3s2)[C@@H]1O` (single isomer, unassigned) [Compound 55], the half-maximal inhibitory concentration (IC50) in assay [1] was 310 nM; in assay [2] it was 758 nM. For the same compound, in assay [3], the half-maximal effective concentration (EC50) is 38 nM. In assay [4], the hEP3D radioligand binding IC50 is greater than 10000 nM.

In assay [1], `COC(=O)CCC/C=C\C[C@H]1C(=O)C(C)(C)[C@@H](O)[C@@H]1/C=C/C(O)CCc1ccccc1` (single isomer, unassigned) [Compound 51] gave an IC50 of 700 nM.

As for `CC1(C)C(=O)[C@H](C/C=C\CCCC(=O)O)[C@@H](/C=C/C(O)Cc2ccccc2)[C@@H]1O` (single isomer, unassigned) [Compound 47], the 50% inhibitory concentration (IC50) is 76 nM in assay [1] and 963 nM in assay [2]. Further, the hEP3D radioligand binding IC50 in assay [4] is greater than 10000 nM.

In turn, `CCNC(=O)CCC/C=C\C[C@H]1C(=O)C(C)(C)[C@@H](O)[C@@H]1/C=C/C(O)Cc1cc2ccccc2s1` (single isomer, unassigned) [Compound 60] displayed a hEP4 radioligand binding IC50 in assay [1] greater than 10000 nM.

In assay [1], `CC1(C)C(=O)[C@H](SCCCSCC(=O)O)[C@@H](/C=C/C(O)CCc2sc3ccccc3c2Cl)[C@@H]1O` (single isomer, unassigned) [Compound 24] yielded a half-maximal inhibitory concentration (IC50) of 26 nM. Also, in assay [3], the EC50 was 0.1 nM. The “hEP3D radioligand binding IC50” value in assay [4] was >>10K.

In the case of `CC1(C)C(=O)[C@H](C/C=C\CCCC(=O)NCCO)[C@@H](/C=C/C(O)Cc2cc3ccccc3s2)[C@@H]1O` (single isomer, unassigned) [Compound 64], in assay [1], the 50% inhibitory concentration (IC50) is 4150 nM.

As to `COC(=O)CCC/C=C\C[C@H]1C(=O)C(C)(C)[C@@H](O)[C@@H]1/C=C/C(O)Cc1ccccc1` (single isomer, unassigned) [Compound 48], the IC50 in assay [1] was found to be 45 nM. This IC50 is about 92-fold lower than that of the compound before.

With `COC(=O)CCC/C=C\C[C@H]1C(=O)C(C)(C)[C@@H](O)[C@@H]1/C=C/C(O)CCc1sc2ccccc2c1Cl` (single isomer, unassigned) [Compound 38], the IC50 in assay [1] was determined as 2700 nM. Further, the EC50 in assay [3] worked out at 269 nM.

Take `COC(=O)CCC/C=C\C[C@H]1C(=O)C(C)(C)[C@@H](O)[C@@H]1/C=C/C(O)CCc1sc2ccccc2c1Cl` (single isomer, unassigned) [Compound 39]: the IC50 in assay [1] amounted to 2300 nM. The EC50 in assay [3] was 141 nM.

In the case of `CC1(C)C(=O)[C@H](C/C=C\CCCC(=O)O)[C@@H](/C=C/C(O)CCc2ccccc2)[C@@H]1O` (single isomer, unassigned) [Compound 52], the IC50 in assay [1] is 72 nM; in assay [2], 27 nM; in assay [4], 60 nM. Moreover, in assay [3], the EC50 is 18 nM.

In turn, `COC(=O)CCC/C=C\C[C@H]1C(=O)C(C)(C)[C@@H](O)[C@@H]1/C=C/C(O)Cc1ccccc1` (single isomer, unassigned) [Compound 49] yielded a concentration for half-maximal inhibition (IC50) in assay [1] of 1400 nM.

On to `CC1(C)C(=O)[C@H](C/C=C\CCCC(=O)O)[C@@H](/C=C/C(O)CCc2ccccc2)[C@@H]1O` (single isomer, unassigned) [Compound 53], for which the IC50 in assay [1] amounted to 59 nM; in assay [2], 1020 nM; in assay [4], 1860 nM. Moreover, the EC50 in assay [3] was 6.4 nM.

As for `CC1(C)C(=O)[C@H](C/C=C\CCCC(N)=O)[C@@H](/C=C/C(O)Cc2cc3ccccc3s2)[C@@H]1O` (single isomer, unassigned) [Compound 68], the hTP radioligand binding IC50 in assay [5] was greater than 10000 nM. This compound also gave an IC50 in assay [1] of 678 nM.

On to `COC(=O)CCC/C=C\C[C@H]1C(=O)C(C)(C)[C@@H](O)[C@@H]1/C=C/C(O)Cc1cc2ccccc2s1` (single isomer, unassigned) [Compound 71], for which the IC50 in assay [1] worked out at 10000 nM. This counts as double-digit micromolar.

For `COC(=O)CCC/C=C\C[C@H]1C(=O)C(C)(C)[C@@H](O)[C@@H]1/C=C/C(O)Cc1cc2ccccc2s1` (single isomer, unassigned) [Compound 70], in assay [1], the half-maximal inhibitory concentration (IC50) was 219 nM. The same compound yielded a hEP3D radioligand binding IC50 in assay [4] greater than 10000 nM.

Values taken from patent publication US9156810B2, “Treatment of inflammatory bowel disease” (ALLERGAN, INC., priority 2003, dated 2015).
